What all share (assay type): in vivo, rat
Test [1] has as its system P2X3 protein. The test is described as follows: P2X3 protein expression in dorsal root ganglion of burn rats (band density normalized to β-actin). The note with it: n=3. Here is the method:
SD rats (their body weights were between 200±20 g) were randomly divided into the group I (sham back burn), the group II (Puerarin, intraperitoneal injection), the group III (superficial second degree back burn), the group IV (superficial second degree back burn+puerarin), the group V (control) and the group VI (superficial second degree back burn+Indocin). The rats in the group IV (superficial second degree back burn+puerarin) were subjected to intraperitoneal injection of puerarin (100 mg/kg) everyday for continuous three days 30 minutes before burn and after burn. The rats in the group VI (superficial second degree back burn+Indocin) were subjected to intraperitoneal injection of idomethine (4 mg/kg/d) everyday for continuous three days 30 minutes before burn and after burn. Results: the optical density scanned values for the interested bands that were detected on X-ray film were read by using Alpha Imager 2200 image analysis software, and the scanned values of β-actin for different groups were used to normalize the expression level of P2X3 in corresponding groups.

Test [2] concerns P2X3 receptor. The test is described as follows: Immunohistochemical analysis of P2X3 expression in dorsal root ganglion of burn rats. Conditions: n=10. Here is the method: SD rats (their body weights were 200±20 g) were randomly divided into the group I (sham back burn), the group II (Puerarin, intraperitoneal injection), the group III (superficial second degree back burn), the group IV (superficial second degree back burn+puerarin), the group V (control) and the group VI (superficial second degree back burn+Indocin). The rats in the group IV (superficial second degree back burn+puerarin) were subjected to intraperitoneal injection of puerarin (100 mg/kg) everyday for continuous three days 30 minutes before burn and after burn. Immunohistochemical analysis was used to detect the change in P2X3 expression in dorsal root ganglion in burn position of rats. Results of immunohistochemical analysis were subjected to analysis by using Hmias-2000 high-resolution color medical image analysis system.

Test [3] relates to P2X3 mRNA. Description: RT-PCR of P2X3 mRNA expression in dorsal root ganglion of burn rats. Conditions: n=3. The procedure: SD rats (their body weights were between 200±20 g) were randomly divided into the group I (sham back burn), the group II (Puerarin, intraperitoneal injection), the group III (superficial second degree back burn), the group IV (superficial second degree back burn+puerarin), the group V (control) and the group VI (superficial second degree back burn+Indocin). The rats in the group IV (superficial second degree back burn+puerarin) were subjected to intraperitoneal injection of puerarin (100 mg/kg) 30 minutes before burn and after burn everyday for continuous three days. The rats in the group VI (superficial second degree back burn+Indocin) were subjected to intraperitoneal injection of idomethine (4 mg/kg/d) 30 minutes before burn and after burn everyday for continuous three days. Primer design: β-actin was selected as the internal reference and the sequences for the primers were as below: Gel image system was used to record the scanned values for spot density (average optical density) of target electrophoresis bands, and the ratio between P2X3 band and corresponding β-actin band was used as the relative amount of P2X3 mRNA expression.

Test [4] has as its system P2X3 receptor. Description: Immunohistochemistry of P2X3 receptor expression in dorsal root ganglion of CCI rats. Conditions: L4/L5 DRG.
[5] abbreviates: superficial second degree back burn + drug (puerarin 100 mg/kg i.p., idomethine 4 mg/kg/d i.p., three days), burn 1.23±0.06, control 0.98±0.02.
The mark [6] stands for this setting: superficial second degree back burn + drug (puerarin 100 mg/kg i.p. three days), burn 1.21±0.04, control 1.03±0.02.
[7] abbreviates: superficial second degree back burn + drug (puerarin 100 mg/kg i.p., idomethine 4 mg/kg/d i.p., three days), burn 1.04±0.03, control 0.91±0.03.
Setting [8] is: CCI rats + drug, 14 days after operation, CCI 1.64±0.05, control 1.15±0.03.

On to `COc1ccc2c(c1)c(CC(=O)O)c(C)n2C(=O)c1ccc(Cl)cc1` [Indocin, Indometacin], for which, in test [1] (setting [5]), the “protein expression level of P2X3 (after normalization with corresponding β-actin)” value is reported as 1.14±0.03. Moreover, the “average optical density (P2X3 expression, immunohistochemistry, DRG)” value in test [2] (setting [6]) turned out to be 1.16±0.03. The “relative expression amount of P2X3 mRNA (after normalization with corresponding β-actin), RT-PCR” value in test [3] (setting [7]) came out at 0.97±0.02. Moreover, the “average optical density of P2X3 positive neurons (P2X3 receptor, immunohistochemistry)” value in test [4] (setting [8]) was found to be 1.34±0.04.

Turning to `O=c1c(-c2ccc(O)cc2)coc2c([C@@H]3O[C@H](CO)[C@@H](O)[C@H](O)[C@H]3O)c(O)ccc12` [puerarin], the “protein expression level of P2X3 (after normalization with corresponding β-actin)” value in test [1] (puerarin alone i.p., no burn) came to 0.97±0.02; in test [1] (setting [5]), 0.93±0.02. The “average optical density (P2X3 expression, immunohistochemistry, DRG)” value in test [2] (puerarin alone i.p., no burn) is recorded as 1.01±0.02; in test [2] (setting [6]), 1.10±0.02. For the same molecule, the “relative expression amount of P2X3 mRNA (after normalization with corresponding β-actin), RT-PCR” value in test [3] (puerarin alone i.p., no burn) is 0.89±0.02; in test [3] (setting [7]), 0.90±0.02. Further, the “average optical density of P2X3 positive neurons (P2X3 receptor, immunohistochemistry)” value in test [4] (setting [8]) is 1.28±0.04; in test [4] (puerarin alone, no CCI, 14 days), 1.07±0.03.

For the origin of these results see patent publication US8362070B2, “Application of puerarin in the preparation of P2X3 mediated drugs for pain/nervous system diseases” (Nanchang University, priority 2009, dated 2013).
